Publication PMC6368403, “Identification of a bilirubin receptor that may mediate a component of cholestatic itch” (eLife, 2019)
Where “and” joins values, the source holds several entries; their conditions need not be identical. Identical values can stand only once.

Key:
MRGPRA1 = biological target: T1, MRGPRA1 (Mus musculus, UniProt Q91WW5); assay: Microscale thermophoresis binding to MRGPRA1; design: Transformed binding isotherm (mean of three experiments): unit not given here; conditions: MRGPRA1 (Fig 2E)
T1 construct: expressed in transfected cells
T1 sequence (Q91WW5 1-304): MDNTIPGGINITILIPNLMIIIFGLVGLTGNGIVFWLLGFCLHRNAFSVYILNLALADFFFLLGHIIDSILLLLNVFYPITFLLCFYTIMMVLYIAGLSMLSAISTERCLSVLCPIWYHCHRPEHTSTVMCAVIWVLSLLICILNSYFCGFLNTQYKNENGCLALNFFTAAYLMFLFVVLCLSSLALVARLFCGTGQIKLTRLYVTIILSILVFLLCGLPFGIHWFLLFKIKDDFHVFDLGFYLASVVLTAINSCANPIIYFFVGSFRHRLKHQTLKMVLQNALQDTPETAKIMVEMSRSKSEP
Procedure: (§1) Binding isotherms for MRGPRA1, MRGPRX4, and MRGRPC11 towards various ligands were determined by microscale thermophoresis with the NanoTemper monolith NT.115 instrument ([Duhr and Braun, 2006]). Ligands were pre-incubated with 10 µM of the GFP-tagged receptor of interest for 5 min at room temperature in binding buffer (20 mM Tris and 150 mM NaCl at pH 8.8). Receptors were crudely purified as a membrane fraction from cells stably expressing the receptor ([Vasavda et al., 2017]). Haem metabolites were freshly dissolved in 0.1 M NaOH in dim light and then diluted into assay buffer. Lyophilized BAM8-22 was dissolved in binding buffer. The pH of each ligand was evaluated prior to incubation with a receptor. Samples were loaded into NT.115 Hydrophobic-Treated Capillaries from NanoTemper. Microscale thermophoretic experiments were executed using 20% LED power and 15% MST power. KDs were calculated using the law of mass action with data from three independent experiments. Binding between bilirubin and receptors was evaluated purely thermophoretically, whereas binding between BAM8-22 and MRGPRC11 was evaluated by T-Jump. Samples with dramatic deviations in initial fluorescence were excluded.

MRGPRX4 [1] = biological target: T2, MRGPRX4 (Homo sapiens, UniProt Q96LA9); assay: Ca2+ imaging and concentration-Ca2+ response (EC50) in HEK293 cells expressing MRGPRX4; format: cell-based; conditions: for Ca2+ response (concentration-response curve): MRGPRX4, triplicate wells (Fig 2I)
T2 construct: expressed in transfected cells
T2 sequence (Q96LA9 whole entry): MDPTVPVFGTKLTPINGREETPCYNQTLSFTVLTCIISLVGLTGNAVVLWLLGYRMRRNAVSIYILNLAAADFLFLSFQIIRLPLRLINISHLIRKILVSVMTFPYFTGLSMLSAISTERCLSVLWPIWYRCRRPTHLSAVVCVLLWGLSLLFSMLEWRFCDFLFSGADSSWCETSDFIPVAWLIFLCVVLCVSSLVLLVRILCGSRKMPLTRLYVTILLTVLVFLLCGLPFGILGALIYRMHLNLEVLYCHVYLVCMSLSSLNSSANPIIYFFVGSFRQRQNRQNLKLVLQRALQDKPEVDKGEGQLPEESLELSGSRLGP
Procedure: All cultured cells were maintained in DMEM supplemented with 10% FBS and 1% Penicillin/Streptomycin at 37°C, 5% CO2. All data included were generated from cells tested for mycoplasma and found to be negative. Cells were imaged in calcium imaging buffer (CIB; 10 mM HEPES, 1.2 mM NaHCO3, 130 mM NaCl, 3 mM KCl, 2.5 mM CaCl2, 0.6 mM MgCl2, 20 mM glucose, and 20 mM sucrose at pH 7.4 and 290–300 mOsm). To monitor changes in intracellular [Ca^2+] ([Ca^2+]i), cells were loaded with either Fura 2-AM (HEK293 cells) or Fluo 4-AM (DRG neurons and mast cells) for 30 min in the dark at 37°C in CIB just prior to imaging. With Fura 2-AM, emission at 510 nm was monitored from excitation at both 340 nm and 380 nm. With Fluo 4-AM, emission at 520 nm was monitored from excitation at 488 nm. Cells were identified as responding if the intracellular [Ca^2+] rose by either 50% compared to baseline or 50% compared to the [Ca^2+]i change assayed during addition of 50 mM KCl (neurons only). Damaged, detached, high-baseline, and motion-activated cells were excluded from analysis.
In initial screens, HEK293 cells stably expressing the murine G-protein alpha-subunit Gα15, a unique Gα protein that non-selectively couples a large variety of GPCRs to phospholipase C ^30, were plated on poly-D-lysine-coated coverslips and transiently transfected with constructs encoding the MRGRPR of interest. 12–24 hr later, cells were loaded with the Fura 2-AM. Unless otherwise specified, compounds were perfused into the imaging chamber for approximately thirty seconds after a baseline period was established. Response was then monitored at 5 s intervals for an additional 60 s.
HEK293 cells stably expressing either MRGPRA1, MRGPRX4, and MRGRPC11 were seeded in poly-D-lysine-coated 96-well plates at 10,000 cells/well. Cells were loaded with Fura 2–AM, washed twice, and maintained in CIB. Haem metabolites were freshly dissolved in DMSO in dim light and then diluted into a buffer comprised of 20 mM Tris and 150 mM NaCl at pH 8.8. Potential changes in pH were evaluated prior to each experiment. EC50 values were determined from dose-responses performed in triplicate, repeated 2–4 times. To determine potential antagonism by QWF against bilirubin, cells were treated with varying doses of QWF for 1 min in CIB prior to application of agonist.
HEK293 stable cell lines expressing GFP-tagged MRGPRA3, MRGPRC11, MRGPRD, MRGPRX1, and MRGPRX2 were generated in previously described reports ([Liu et al., 2009]; [Liu et al., 2012]; [McNeil et al., 2015]). Briefly, plasmids containing the receptor of interest were transfected into HEK cells using Lipofectamine 3000. After 3 days, cells were then selected using 0.5 mg/mL G418. After 3 weeks, monoclonal colonies were established and each the highest expressing clones were identified. For this study, Mrgpra1 and MRGPRX4 were inserted into pEGFP-N1 and transfected into HEK293 cells. MRGPR-positive cells were selected using 0.5 mg/mL G418 for three weeks, after which GFP-positive cells were sorted by FACS and monoclonally expanded. Two lines expressing similar levels of MRGPRA1 and MRGPRX4, as measured by GFP fluorescence, were selected for study.

MRGPRX4 [2] = biological target: T2, MRGPRX4; assay: Microscale thermophoresis binding to MRGPRX4; design: microscale thermophoresis response (binding isotherm), mean: unit not given here; conditions: mean of n=3, Fig 2-J
Procedure: as §1

C=CC1=C(C)/C(=C/c2[nH]c(Cc3[nH]c(/C=C4\NC(=O)C(C)=C4C=C)c(C)c3CCC(=O)O)c(CCC(=O)O)c2C)NC1=O [bilirubin, bilirubin IXα]
Transformed binding isotherm (mean of three experiments) (MRGPRA1; [Ligand] 3.05e-8 M): 6.015
Transformed binding isotherm (mean of three experiments) (MRGPRA1; [Ligand] 6.1e-8 M): 5.1124
Transformed binding isotherm (mean of three experiments) (MRGPRA1; [Ligand] 1.221e-7 M): 3.41
Transformed binding isotherm (mean of three experiments) (MRGPRA1; [Ligand] 2.441e-7 M): 3.271
Transformed binding isotherm (mean of three experiments) (MRGPRA1; [Ligand] 4.883e-7 M): -3.226
Transformed binding isotherm (mean of three experiments) (MRGPRA1; [Ligand] 9.766e-7 M): -3.391
Transformed binding isotherm (mean of three experiments) (MRGPRA1; [Ligand] 1.9531e-6 M): 7.109
Transformed binding isotherm (mean of three experiments) (MRGPRA1; [Ligand] 7.8125e-6 M): 1.334
Transformed binding isotherm (mean of three experiments) (MRGPRA1; [Ligand] 1.5625e-5 M): 2.3419
Transformed binding isotherm (mean of three experiments) (MRGPRA1; [Ligand] 3.125e-5 M): 16.9295
Transformed binding isotherm (mean of three experiments) (MRGPRA1; [Ligand] 6.25e-5 M): 43.5974
Transformed binding isotherm (mean of three experiments) (MRGPRA1; [Ligand] 0.000125 M): 64.6366
Transformed binding isotherm (mean of three experiments) (MRGPRA1; [Ligand] 0.00025 M): 80.7081
Transformed binding isotherm (mean of three experiments) (MRGPRA1; [Ligand] 0.0005 M): 102.789
Transformed binding isotherm (mean of three experiments) (MRGPRA1; [Ligand] 0.001 M): 103.048
Calcium response / activation of MRGPRX4-expressing cells (MRGPRX4 [1]): only MRGPRX4-expressing cells responded
Ca2+ response (concentration-response curve) (MRGPRX4 [1]; [Ligand] 1.95313e-6 M): 0.6657 and 0.5292 and 0.882
Ca2+ response (concentration-response curve) (MRGPRX4 [1]; [Ligand] 3.90625e-6 M): 0.5596 and 0.9735 and 0.9102
Ca2+ response (concentration-response curve) (MRGPRX4 [1]; [Ligand] 7.8125e-6 M): 0.7828 and 0.7465 and 0.8173
Ca2+ response (concentration-response curve) (MRGPRX4 [1]; [Ligand] 1.5625e-5 M): 0.5886 and 0.7131 and 0.5739
Ca2+ response (concentration-response curve) (MRGPRX4 [1]; [Ligand] 3.125e-5 M): 0.9259 and 0.9222 and 0.8162
Ca2+ response (concentration-response curve) (MRGPRX4 [1]; [Ligand] 6.25e-5 M): 1.178 and 1.234 and 1.122
Ca2+ response (concentration-response curve) (MRGPRX4 [1]; [Ligand] 0.000125 M): 1.451 and 1.464 and 1.382
Ca2+ response (concentration-response curve) (MRGPRX4 [1]; [Ligand] 0.00025 M): 1.643 and 1.595 and 1.524
microscale thermophoresis response (binding isotherm), mean (MRGPRX4 [2]; [Ligand] 3.05e-8 M): 7.584
microscale thermophoresis response (binding isotherm), mean (MRGPRX4 [2]; [Ligand] 6.1e-8 M): 6.444
microscale thermophoresis response (binding isotherm), mean (MRGPRX4 [2]; [Ligand] 1.221e-7 M): 6.442
microscale thermophoresis response (binding isotherm), mean (MRGPRX4 [2]; [Ligand] 2.441e-7 M): 4.051
microscale thermophoresis response (binding isotherm), mean (MRGPRX4 [2]; [Ligand] 4.883e-7 M): -2.46
microscale thermophoresis response (binding isotherm), mean (MRGPRX4 [2]; [Ligand] 9.766e-7 M): -5.393
microscale thermophoresis response (binding isotherm), mean (MRGPRX4 [2]; [Ligand] 1.9531e-6 M): 5.84
microscale thermophoresis response (binding isotherm), mean (MRGPRX4 [2]; [Ligand] 3.9063e-6 M): 1.017
microscale thermophoresis response (binding isotherm), mean (MRGPRX4 [2]; [Ligand] 7.8125e-6 M): 9.66
microscale thermophoresis response (binding isotherm), mean (MRGPRX4 [2]; [Ligand] 1.5625e-5 M): 19.4349
microscale thermophoresis response (binding isotherm), mean (MRGPRX4 [2]; [Ligand] 3.125e-5 M): 35.6519
microscale thermophoresis response (binding isotherm), mean (MRGPRX4 [2]; [Ligand] 6.25e-5 M): 68.0309
microscale thermophoresis response (binding isotherm), mean (MRGPRX4 [2]; [Ligand] 0.000125 M): 97.8035
microscale thermophoresis response (binding isotherm), mean (MRGPRX4 [2]; [Ligand] 0.00025 M): 117.52
microscale thermophoresis response (binding isotherm), mean (MRGPRX4 [2]; [Ligand] 0.0005 M): 123.698
microscale thermophoresis response (binding isotherm), mean (MRGPRX4 [2]; [Ligand] 0.001 M): 119.096
